pIC50: −log10 of the molar value.
target: Gag-Pol polyprotein (Human immunodeficiency virus type 1 group M subtype B (isolate HXB2)(HIV-1), UniProt P04585); assay: Inhibition Assay: The inhibition of WT HIV-1 protease was studied using the reaction of the protease (expressed in Eschericia coli) with a peptide substrate [Val-Ser-Gln-Asn-(betanaphthyl)Ala-Pro-Ile-Val (SEQ ID NO:1)]. Compounds were tested using Procedure A. In Procedure A, the test compound was first preincubated with the enzyme in assay buffer (50 mM sodium acetate, pH 5.5, 100 mM NaCl, and 0.1% BSA) for 30 minutes at room temperature. Substrate was then added to 400 micromolar in a total volume of 80 microliters containing 10 picomolar HIV-1 protease and the reaction was incubated for 1 hour at 30° C. The reaction was quenched with the addition of 120 microliters of 10% phosphoric acid. The product formation was determined after separation of product and substrate on a Zorbax Eclipse XDB-C18 column (Agilent Technologies, Santa Clara, Calif.) connected to an Agilent 1100 high performance liquid chromatography system with fluorescence detection (excitation 270 nanometer and emission 330 nanometer).

First: COC(=O)N[C@H](C(=O)N[C@H](c1ccc(C(CO)N(CCC(C)(C)C)S(=O)(=O)c2ccc(OC)nc2)s1)C(F)(F)F)C(c1ccccc1)c1ccccc1 (stereo partly specified)
Second: COC(=O)N[C@H](C(=O)N[C@H](c1ccc([C@@H](CO)N(CCC(C)(C)C)S(=O)(=O)c2ccc(=O)[nH]c2)s1)C(F)(F)F)C(c1ccccc1)c1ccccc1
The pIC50 of the first is 0.47 log units lower: 7.56 for the first, 8.03 for the second.

Compared with COC(=O)N[C@H](C(=O)NCc1ccc([C@@H](CO)N(CC2CC(F)(F)C2)S(=O)(=O)c2ccc(C(C)O)cc2)s1)C(c1ccccc1)c1ccccc1 (stereo partly specified), COC(=O)N[C@H](C(=O)NCc1ccc([C@@H](CO)N(CC2CC(F)(F)C2)S(=O)(=O)c2ccc(C(O)C(F)(F)F)cc2)s1)C(c1ccccc1)c1ccccc1 (stereo partly specified) is 0.48 log units lower in pIC50: 8.05 for the first, 7.57 for the second. The first is the more potent here.

Going from COC(=O)N[C@H](C(=O)NCc1ccc([C@@H](CO)N(CC2CC(F)(F)C2)S(=O)(=O)c2ccc(C(C)=O)cc2)s1)C(c1ccccc1)c1ccccc1 to COC(=O)N[C@H](C(=O)N[C@H](c1ccc([C@@H](CO)N(C(C)C)S(=O)(=O)c2ccc(N)c(Cl)c2)s1)C(F)(F)F)C(c1ccccc1)c1ccccc1, the pIC50 falls from 7.92 to 7.03 (0.89 log units). The first is the more potent here.

First: COC(=O)N[C@H](C(=O)N[C@H](c1ccc([C@@H](CO)N(C(C)C)S(=O)(=O)c2ccc(N)cc2)s1)C(F)(F)F)[C@@H](c1ccccc1)c1c[nH]c2ncccc12
Second: COC(=O)N[C@H](C(=O)N[C@H](c1ccc([C@@H](CO)N(C(C)C)S(=O)(=O)c2cc(N)cs2)s1)C(F)(F)F)C(c1ccccc1)c1ccccc1
The pIC50 of the first is 0.74 log units higher: 8.40 for the first, 7.66 for the second. The first is the more potent here.

Going from COC(=O)N[C@H](C(=O)N[C@H](c1ccc([C@@H](CO)N(CCC(C)(C)C)S(=O)(=O)c2cn3ncnc3cn2)s1)C(F)(F)F)C(c1ccccc1)c1ccccc1 to COC(=O)N[C@H](C(=O)N[C@H](c1ccc([C@@H](CO)N(CCC(C)(C)C)S(=O)(=O)C2=CC3NC=C(Cl)C3C=C2)s1)C(F)(F)F)C(c1ccccc1)c1ccccc1 (stereo partly specified), the pIC50 falls from 8.44 to 7.36 (1.08 log units). The first is the more potent here.

In the case of COC(=O)N[C@H](C(=O)N[C@H](c1ccc([C@@H](CO)N(C(C)C)S(=O)(=O)c2ccc(Cl)s2)s1)C(F)(F)F)C(c1ccccc1)c1ccccc1, the pIC50 was 6.73.
